Measured values taken from US9034825B2, “Treatment of myocardial injury with humanin analogs” (Albert Einstein College of Medicine of Yeshiva University, priority 2007, dated 2015).

Tested on: primary hepatocytes
Test: Glucose production of primary isolated hepatocytes
Assay type: cell-based
Details: rat hepatocytes explant cultures
Protocol: Single-cell suspensions of hepatocytes were obtained from perfusions of Sprague-Dawley rats using the procedure of Berry and Friend (1969) and the perfusion mixture of Leffert et al (1979). Hepatocyte glucose production was estimated after a 24 hr treatment with HN, F6A and saline as described before (Berg et al. 2001). In a separate set of experiment, hepatocytes were lysed, and protein extracted in RIPA lysis buffer at 30, 60 and 360 min post treatment with FIN, F6A and saline. The cell lysates were then subject to western blotting for Phospho-STAT3 (Tyr705), total-STAT3, Phospho-AKT (Ser473), and total-AKT expression (antibodies purchased from Cell Signaling, #9131, #9132, #9271, #9272).

CC[C@H](C)[C@H](NC(=O)[C@H](CCC(=O)O)NC(=O)[C@H](CO)NC(=O)[C@@H](NC(=O)[C@H](CC(C)C)NC(=O)[C@H](CC(C)C)NC(=O)[C@H](CC(C)C)NC(=O)[C@H](CC(C)C)NC(=O)[C@H](CS)NC(=O)[C@H](CO)NC(=O)[C@H](Cc1ccccc1)NC(=O)CNC(=O)[C@H](CCCNC(=N)N)NC(=O)[C@@H]1CCCN1C(=O)[C@H](C)NC(=O)[C@@H](N)CCSC)[C@@H](C)O)C(=O)N[C@@H](CC(=O)O)C(=O)N[C@@H](CC(C)C)C(=O)N1CCC[C@H]1C(=O)N[C@H](C(=O)N[C@@H](CCCCN)C(=O)N[C@@H](CCCNC(=N)N)C(=O)N[C@@H](CCCNC(=N)N)C(=O)N[C@@H](C)C(=O)O)C(C)C [Humanin, maprgfscll lltseidlpv krra]
glucose production rates with and without HN: not different
